# Laboratory results as given in patent US20200268768A1, “CENICRIVIROC COMBINATION THERAPY FOR THE TREATMENT OF FIBROSIS” (Tobira Therapeutics, Inc., priority 2015, published 2020).
# “Also recorded” adds a separate entry of the source.
# Experiments:
# [1] = system: thioacetamide (TAA)-induced hepatic fibrosis; assay: Rat model of thioacetamide-induced liver fibrosis and cirrhosis; type: in vivo, Sprague-Dawley rats; conditions: for Reduction of ca-SMA / Reduction of collagen type 1 protein levels / Reduction of fibrosis by collagen morphometry: first 8 weeks
# Description: Fibrosis was induced in male Sprague-Dawley rats by intraperitoneal administration of TAA 150 mg/kg 3 times/week for 8 weeks. […] Biochemical, gene expression and histologic evaluations of the liver were conducted.
# [2] = Mouse toxicity studies; type: in vivo; conditions: CVC doses up to 2000 mg/kg/day; no surgical procedures
# [3] = system: adults with CCR5 tropic HIV-1; assay: Study 202 post-hoc APRI and FIB-4 fibrosis index scores; type: in vivo, human
# Description: APRI and FIB-4 scores were calculated. Change in score category from baseline (BL) to Weeks 24 and 48 was assessed in patients with non-missing data. Correlations between changes from BL in APRI and FIB-4 scores, and MCP-1 (CCR2 ligand) and sCD14 (inflammatory biomarker) levels were evaluated.
# [4] = system: HIV-1 infected subjects; assay: Study 202 safety and tolerability; type: in vivo, human; conditions: 115 subjects, CVC 100 mg and 200 mg for up to 48 weeks
# [5] = Chronic (3- and 9-month) monkey toxicity studies; type: in vivo
# [6] = target: CCR5 (Homo sapiens, UniProt P51681); assay: CCR5 antagonism in in vitro, ex vivo and clinical studies; conditions: Studies 652-2-201 and 652-2-202
# CCR5, sequence (P51681 whole entry): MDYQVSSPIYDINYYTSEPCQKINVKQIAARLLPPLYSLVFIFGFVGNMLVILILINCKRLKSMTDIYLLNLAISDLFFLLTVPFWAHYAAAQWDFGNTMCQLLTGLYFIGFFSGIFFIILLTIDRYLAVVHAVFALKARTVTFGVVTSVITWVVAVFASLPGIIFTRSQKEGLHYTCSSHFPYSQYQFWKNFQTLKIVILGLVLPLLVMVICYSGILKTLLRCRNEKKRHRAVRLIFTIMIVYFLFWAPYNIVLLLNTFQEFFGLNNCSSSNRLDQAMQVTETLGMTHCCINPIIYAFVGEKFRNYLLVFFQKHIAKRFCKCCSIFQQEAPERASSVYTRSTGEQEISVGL
# From the text: Clinical evidence of CCR2 and CCR5 antagonism was established by measuring changes from baseline in plasma MCP-1 (a ligand of CCR2) concentrations and changes in plasma HIV-RNA (CCR5 co-receptor required for HIV entry), respectively, in these 2 Phase 2 Studies.
# [7] = CVC plasma exposures in clinical studies; type: in vivo, human; conditions: same dosing conditions; Studies 652-1-111, 652-1-110, 652-2-202
# [8] = Group 1a: CVC 30 mg/kg/day concurrently with TAA
# [9] = Group 1b: CVC 100 mg/kg/day concurrently with TAA
# [10] = Week 24, CVC pooled 100 and 200 mg, or EFV
# [11] = Week 48, CVC pooled 100 and 200 mg, or EFV
compound,measurement,setting,value
"CCCCOCCOc1ccc(-c2ccc3c(c2)C=C(C(=O)Nc2ccc([S@@+]([O-])Cc4cncn4CCC)cc2)CCCN3CC(C)C)cc1 [CVC, (S)-8-[4-(2-Butoxyethoxy)phenyl]-1-isobutyl-N-(4-{[(1-propyl-1H-imidazol-5-yl)methyl]sulfinyl}phenyl)-1,2,3,4-tetrahydro-1-benzazocine-5-carboxamide]",Reduction of ca-SMA,[1]; [8],17%
same,Reduction of collagen type 1 protein levels,[1]; [8],30%
same,Reduction of fibrosis by collagen morphometry,[1]; [8],49%
same,Reduction of ca-SMA,[1]; [9],22%
same,Reduction of collagen type 1 protein levels,[1]; [9],12%
same,Reduction of fibrosis by collagen morphometry,[1]; [9],38%
same,Reduction in collagen,[1]; Group 2a: CVC 30 mg/kg/day during Weeks 4-8 (emerging fibrosis),36%
same,Effect on fibrogenic gene expression or fibrosis,"[1]; Group 3: treatment Weeks 8-12, cirrhosis present",no significant effect of CVC on fibrogenic gene expression or fibrosis
same,Tolerability,[2],well tolerated
same,Subjects in APRI category 0.5-1.5,[3]; [10],7%
same,Subjects in APRI category <0.5,[3]; [10],93%
same,Subjects in FIB-4 category 1.45-3.25,[3]; [10],7%
same,Subjects in FIB-4 category <1.45,[3]; [10],93%
same,Subjects with APRI decreased 1 category from baseline,[3]; [10],14%
same,Subjects with FIB-4 decreased 1 category from baseline,[3]; [10],13%
same,Subjects in APRI category 0.5-1.5,[3]; [11],8%
same,Subjects in APRI category <0.5,[3]; [11],91%
same,Subjects in APRI category >1.5,[3]; [11],1%
same,Subjects in FIB-4 category 1.45-3.25,[3]; [11],5%
same,Subjects in FIB-4 category <1.45,[3]; [11],94%
same,Subjects in FIB-4 category >3.25,[3]; [11],1%
same,Subjects with APRI decreased 1 category from baseline,[3]; [11],10%
same,Subjects with FIB-4 decreased 1 category from baseline,[3]; [11],14%
same,Subjects with improvements in APRI and FIB-4 scores over time,"[3]; all CVC-treated subjects, pooled CVC 100 mg and 200 mg",≥ 10%
same,Tolerability,[4],generally well tolerated; also recorded: effective and well tolerated
same,Plasma MCP-1 levels over controls,"[5]; 1000 mg/kg/day, chronic (3- and 9-month) monkey toxicity studies",~5 fold
same,"Inflammation in clinical pathology parameters or any tissue, including the liver, by microscopic evaluation",[5]; high dose of 1000 mg/kg/day,No indication of inflammation
same,Antagonism of CCR5,[6],potent and concentration-dependent antagonism
same,CVC plasma exposures,[7],higher in non-HIV infected healthy volunteer subjects as compared to HIV-infected subjects
